In US9771370B2, “Compounds for the inhibition of indoleamine-2,3-dioxygenase” (Merck Patent GmbH, priority 2014, dated 2017):

Biological target: Recombinant human IDO (Homo sapiens, UniProt P14902)
Experiment: Bridge-IT tryptophan fluorescence assay of human IDO-1 inhibition
Type: biochemical
Conditions: recombinant human IDO 7.5 nM, L-tryptophan
Experimental: Measurement of human IDO-1 inhibition is performed in 384 well format using the Bridge-IT® tryptophan Fluorescence Assay (Mediomics, LLC, St. Louis, Mo., U.S.A.).
The reaction is initiated by the addition of L-Tryptophan (Sigma) at a final concentration of 100 μM in assay buffer. After 90 minutes of incubation at 37° C., the reaction is stopped by transferring 1 μl of the reaction mixture to 9 μl of Bridge-IT assay solution A. After 30 min of incubation at 30° C., the fluorescence intensity was measured at λex=485 nm and λem=665 nm using Perkin Elmer Envision® Multilabel Reader.
Measurement of human IDO-1 inhibition was performed in 384-well format using the BRIDGE-IT® tryptophan Fluorescence Assay (Mediomics, LLC, St. Louis, Mo., U.S.A.). […] After 30 minutes of pre-incubation at 25° C., the reaction was initiated by the addition of L-Tryptophan (Sigma) at a final concentration of 50 μM in assay buffer. After 60 minutes of incubation at 25° C., the reaction is stopped by transferring 1 μl of the reaction mixture to 9 μl of Bridge-IT assay solution A. After 30 min of incubation at 30° C., the fluorescence intensity was measured at λex=485 nm and λem=665 nm using Perkin Elmer ENVISION® Multilabel Reader.

Chain of Recombinant human IDO (P14902 whole entry): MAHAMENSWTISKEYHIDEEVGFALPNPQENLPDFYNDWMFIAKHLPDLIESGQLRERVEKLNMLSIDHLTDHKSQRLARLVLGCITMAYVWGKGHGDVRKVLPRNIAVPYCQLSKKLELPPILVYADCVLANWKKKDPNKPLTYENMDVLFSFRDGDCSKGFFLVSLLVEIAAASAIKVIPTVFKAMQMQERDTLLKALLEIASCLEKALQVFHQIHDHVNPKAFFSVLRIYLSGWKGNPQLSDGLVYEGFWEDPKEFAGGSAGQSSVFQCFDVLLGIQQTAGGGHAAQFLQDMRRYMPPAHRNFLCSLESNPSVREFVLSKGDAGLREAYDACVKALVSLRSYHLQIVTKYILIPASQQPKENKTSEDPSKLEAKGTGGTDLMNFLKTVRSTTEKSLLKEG

| SMILES | IC50 |
| --- | --- |
| NC(=O)C1CCC(F)(CCC2c3c(F)cccc3-c3cncn32)CC1 (single isomer, unassigned) [Compound 81b, 4-fluoro-4-[2-[6-fluoro-5H-imidazo[4,3-a]isoindol-5-yl]ethyl]cyclohexane-1-carboxamide] | > 1000 nM |
| Fc1cccc2c1-c1cncn1C2CCC1(F)CCCCC1 (single isomer, unassigned) [Compound 36a, 9-fluoro-5-(2-(1-fluorocyclohexyl)ethyl)-5H-imidazo[5,1-a]isoindole] | > 1000 nM |
| NC(=O)C1CCC(C(O)CC2c3ncccc3-c3cncn32)CC1 (single isomer, unassigned) [Compound 63c, 4-[1-hydroxy-2-[4,6,9-triazatricyclo[6.4.0.0^[2,6]]dodeca-1(8),2,4,9,11-pentaen-7-yl]ethyl]cyclohexane-1-carboxamide] | > 1000 nM |
| NC(=O)CC1CCC(F)(CCC2c3ccccc3-c3cncn32)CC1 (single isomer, unassigned) [Compound 112a, 2-[4-fluoro-4-[2-[5H-imidazo[4,3-a]isoindol-5-yl]ethyl]cyclohexyl]acetamide] | > 1000 nM |
| CC1(C)CCC(C(O)CC2c3nc(F)ccc3-c3cncn32)CC1 (single isomer, unassigned) [Compound 25b, 1-(4,4-dimethylcyclohexyl)-2-[10-fluoro-4,6,9-triazatricyclo[6.4.0.0^[2,6]]dodeca-1(8),2,4,9,11-pentaen-7-yl]ethan-1-ol] | > 1000 nM |
| CC1(C)CCC(F)(CCC2c3ncccc3-c3cncn32)CC1 (single isomer, unassigned) [Compound 48a, 7-[2-(1-fluoro-4,4-dimethylcyclohexyl)ethyl]-4,6,9-triazatricyclo[6.4.0.0^[2,6]]dodeca-1(8),2,4,9,11-pentaene] | > 1000 nM |
| NC(=O)C1CCC(C(O)CC2c3ncccc3-c3cncn32)CC1 (single isomer, unassigned) [Compound 63b, 4-[1-hydroxy-2-[4,6,9-triazatricyclo[6.4.0.0^[2,6]]dodeca-1(8),2,4,9,11-pentaen-7-yl]ethyl]cyclohexane-1-carboxamide] | > 1000 nM |
| OC1CCC(F)(CCC2c3c(F)ccc(F)c3-c3cncn32)CC1 (single isomer, unassigned) [Compound 38c, 4-(2-(6,9-difluoro-5H-imidazo[5,1-a]isoindol-5-yl)ethyl)-4-fluorocyclohexanol] | > 1000 nM |
| OC1CCC(C(O)CC2c3c(ccnc3F)-c3cncn32)CC1 (mixture of isomers) [Compound 4a, 4-(2-[9-fluoro-4,6,10-triazatricyclo[6.4.0.0^[2,6]]dodeca-1(8),2,4,9,11-pentaen-7-yl]-1-hydroxyethyl) cyclohexan-1-ol] | > 1000 nM |
| COc1cccc2c1-c1cncn1C2CCC1(F)CCC(O)CC1 (stereo not shown) [Compound 41a, 4-fluoro-4-(2-(9-methoxy-5H-imidazo[5,1-a]isoindol-5-yl)ethyl)cyclohexanol] | > 1000 nM |
| FC1(CCC2c3nc(C(F)(F)F)ccc3-c3cncn32)CCCCC1 (single isomer, unassigned) [Compound 76a, 7-[2-(1-fluorocyclohexyl)ethyl]-10-(trifluoromethyl)-4,6,9-triazatricyclo[6.4.0.0^[2,6]]dodeca-1(8),2,4,9,11-pentaene] | > 1000 nM |
| OC(CC1c2nccc(F)c2-c2cncn21)C1CCCCC1 (single isomer, unassigned) [Compound 101a, 1-cyclohexyl-2-[12-fluoro-4,6,9-triazatricyclo[6.4.0.0^[2,6]]dodeca-1(8),2,4,9,11-pentaen-7-yl]ethan-1-ol] | > 1000 nM |
| OC(CC1c2ncccc2-c2cncn21)C1CCOCC1 (single isomer, unassigned) [Compound 92d, 1-(oxan-4-yl)-2-[4,6,9-triazatricyclo[6.4.0.0^[2,6]]dodeca-1(8),2,4,9,11-pentaen-7-yl]ethan-1-ol] | > 1000 nM |

Continued, values first:

| IC50 | SMILES |
| --- | --- |
| > 1000 nM | COc1ccc2c(n1)C(CC(N)C1CCC(C)(C)CC1)n1cncc1-2 (single isomer, unassigned) [Compound 119b, 1-(4,4-dimethylcyclohexyl)-2-[10-methoxy-4,6,9-triazatricyclo[6.4.0.0^[2,6]]dodeca-1(8),2,4,9,11-pentaen-7-yl]ethan-1-amine] |
| < 100 nM | NC(=O)C1CCC(F)(CCC2c3ccccc3-c3cncn32)CC1 (single isomer, unassigned) [Compound 79d, 4-fluoro-4-[2-[5H-imidazo[4,3-a]isoindol-5-yl]ethyl]cyclohexane-1-carboxamide] |
| > 1000 nM | OC(CC1c2nccc(F)c2-c2cncn21)C1CCCCC1 (single isomer, unassigned) [Compound 101c, 1-cyclohexyl-2-[12-fluoro-4,6,9-triazatricyclo[6.4.0.0^[2,6]]dodeca-1(8),2,4,9,11-pentaen-7-yl]ethan-1-ol] |
| 100 to 1000 nM | OC(CC1c2nc(Cl)ccc2-c2cncn21)C1CCCCC1 (single isomer, unassigned) [Compound 55d, 2-[10-chloro-4,6,9-triazatricyclo[6.4.0.0^[2,6]]dodeca-1(8),2,4,9,11-pentaen-7-yl]-1-cyclohexylethan-1-ol] |
| 100 to 1000 nM | OC(CC1c2nc(OC3CC3)ccc2-c2cncn21)C1CCCCC1 (single isomer, unassigned) [Compound 68a, 1-cyclohexyl-2-[10-cyclopropoxy-4,6,9-triazatricyclo[6.4.0.0^[2,6]]dodeca-1(8),2,4,9,11-pentaen-7-yl]ethan-1-ol] |
| < 100 nM | OCC1CCC(F)(CCC2c3c(F)cccc3-c3cncn32)CC1 (single isomer, unassigned) [Compound 84d, [4-fluoro-4-[2-[6-fluoro-5H-imidazo[4,3-a]isoindol-5-yl]ethyl]cyclohexyl]methanol] |
| 100 to 1000 nM | COc1ccc2c(n1)C(CC(N)C1CCC(F)(F)CC1)n1cncc1-2 (single isomer, unassigned) [Compound 120c, 1-(4,4-difluorocyclohexyl)-2-[10-methoxy-4,6,9-triazatricyclo[6.4.0.0^[2,6]]dodeca-1(8),2,4,9,11-pentaen-7-yl]ethan-1-amine] |
| 100 to 1000 nM | Fc1cccc2c1C(CC(F)(F)C1CCCCC1)n1cncc1-2 (racemic) [Compound 65, 5-(2-cyclohexyl-2,2-difluoroethyl)-6-fluoro-5H-imidazo[4,3-a]isoindole] |
| 100 to 1000 nM | COc1ccc2c(n1)C(CC(O)C1CCCCC1)n1cncc1-2 (single isomer, unassigned) [Compound 39b, 1-Cyclohexyl-2-[10-methoxy-4,6,9-triazatricyclo[6.4.0.0^[2,6]]dodeca-1(8),2,4,9,11-pentaen-7-yl]ethan-1-ol] |
| 100 to 1000 nM | FC1(F)CCC(F)(CCC2c3c(Cl)cccc3-c3cncn32)CC1 (single isomer, unassigned) [Compound 72b, 6-chloro-5-[2-(1,4,4-trifluorocyclohexyl)ethyl]-5H-imidazo[4,3-a]isoindole] |
| < 100 nM | OC1CCC(F)(CCC2c3ccccc3-c3cncn32)CC1 (single isomer, unassigned) [Compound 13b, 4-(2-(5H-imidazo[5,1-a]isoindol-5-yl)ethyl)-4-fluorocyclohexanol] |
| < 100 nM | NC(=O)CC1CCC(F)(CCC2c3ccccc3-c3cncn32)CC1 (single isomer, unassigned) [Compound 112d, 2-[4-fluoro-4-[2-[5H-imidazo[4,3-a]isoindol-5-yl]ethyl]cyclohexyl]acetamide] |
